Molecules are shown by their SMILES.

One data set relates to Caki-1. The experiment in a line: Cell proliferation assay (MTS or SRB), Caki-1. Type of data set: cell-based. Conditions: Homo sapiens, 72 h; Caki-1, Kidney, 3 days; read-out: IC50 (cell growth inhibition). On the procedure: (§1) In vitro cell proliferation assays were performed using a 96-well plate based MTSassay (CellTiter 96° AqueousOne Solution Cell Proliferation Assay, Promega) or SRB (Sulforhodamine-B) assay (1-3). Briefly, cells were plated in 100 μl medium on day 0 in 96-well microtiter plates (Falcon #3072). On day 1, 10 μl of serial dilutions of each compound (Nine 1:2 dilutions with a starting concentration of 100 μM; in some cases, a starting concentration of 400 μM (CMX001 or Cidofovir) or 1 μM (some standard agents)) were added in triplicates to the plates. For standard agents using DMSO as solvent, serial dilutions of DMSO with a starting concentration of 0.5% were also included as a vehicle control.
(§2) After incubation for 3 days at 37° C. in a humidified incubator, viable cells were measured either by MTS or SRB assay. For MTS assay, 20 μl of a 20:1 mixture of (3-(4,5-dimethylthiazol-2-yl)-5-(3-carboxymethoxyphenyl)-2-(4-sulfophenyl)-2H-tetrazolium, inner salt (MTS, 2 mg/ml) and an electron coupling reagent, phenazine methosulfate (PMS, 0.92 mg/ml in DPBS), was added to each well and incubated for 3 hours at 37° C. Absorbance was measured using a BioTek Synergy™ HT Multiple Detection microplate reader at 490 nm. For SRB assay, cells were fixed in situ with 50 μL of cold trichloroacetic acid (TCA, final concentration at 10% w/v) for 60 minutes. Cells were then washed 5 times with H2O and air-dried.
(§3) Next, cells were stained with 20 μL of 0.2% SRB in 1% acetic acid and incubated at room temperature for 30 minutes and unbound SRB was removed by washing 5 times with 1% acetic acid and air-dried. Finally, bound SRB stain was solubilized in 50 μL of 50 μM Tris buffer before taking an optical density measurement at 570 nm using the BioTek microplate reader. The growth inhibition data were expressed as the percentage of cell survival calculated from the background corrected absorbance. The surviving fraction of cells was determined by dividing the mean absorbance values of the test agent-treated samples by the mean absorbance values of untreated control. […]

Another data set deals with Caki-2. The experiment in a line: Cell proliferation assay (MTS or SRB), Caki-2. Type of data set: cell-based. Conditions: Homo sapiens, 72 h; Caki-2, Kidney, 3 days; read-out: IC50 (cell growth inhibition). As for the experimental part: as §1, §2, §3
Another data set relates to MDA-231. The experiment in a line: Cell proliferation assay (MTS or SRB), MDA-231. Type of data set: cell-based. Particulars: Homo sapiens, MDA-MB-231, 72 h; MDA-231, Breast, 3 days; read-out: IC50 (cell growth inhibition). On the procedure:
as §1, §2, §3

The subject of a further data set is A549. The experiment in a line: Cell proliferation assay (MTS or SRB), A549. Type of data set: cell-based. Particulars: Homo sapiens, 72 h; A549, Lung, 3 days; read-out: IC50 (cell growth inhibition). As for the experimental part: as §1, §2, §3
The next data set deals with SK-MEL-2. The experiment in a line: Cell proliferation assay (MTS or SRB), SK-MEL-2. Type of data set: cell-based. Particulars: Homo sapiens, 72 h; SK-MEL-2, Skin (melanoma), 3 days; read-out: IC50 (cell growth inhibition). As for the experimental part: as §1, §2
Next, cells were stained with 20 μL of 0.2% SRB in 1% acetic acid and incubated at room temperature for 30 minutes and unbound SRB was removed by washing 5 times with 1% acetic acid and air-dried. Finally, bound SRB stain was solubilized in 50 μL of 50 μM Tris buffer before taking an optical density measurement at 570 nm using the BioTek microplate reader. The growth inhibition data were expressed as the percentage of cell survival calculated from the background corrected absorbance. The surviving fraction of cells was determined by dividing the mean absorbance values of the test agent-treated samples by the mean absorbance values of untreated control.
Raw data were acquired using a BioTek Synergy™ HT Multiple Detection microplate reader and imported into Microsoft Excel for analysis. The average signal of each treatment was calculated from the triplicates after subtracting the blank signals. The percentage survival values were calculated using the following formula: % survival=(average signal of the drug treatment/average signal of untreated controls)×100. The data were finally imported into the Prism 4 software (GraphPad Software, San Diego, Calif.) to generate the dose-activity curves using non-linear regression curve fit and to calculate the IC50 values.

The next data set concerns Het-1A. The experiment in a line: Cell proliferation assay (MTS or SRB), Het-1A. Type of data set: cell-based. Conditions: Homo sapiens, 72 h, Esophagus (Normal), SV40 large T immortalized, 3 days, read-out: IC50 (cell growth inhibition). As for the experimental part:
as §1
(§4) After incubation for 3 days at 37° C. in a humidified incubator, viable cells were measured either by MTS or SRB assay. […]
(§5) Next, cells were stained with 20 μL of 0.2% SRB in 1% acetic acid and incubated at room temperature for 30 minutes and unbound SRB was removed by washing 5 times with 1% acetic acid and air-dried. Finally, bound SRB stain was solubilized in 50 μL of 50 μM Tris buffer before taking an optical density measurement at 570 nm using the BioTek microplate reader. The growth inhibition data were expressed as the percentage of cell survival calculated from the background corrected absorbance. […]

In a further data set the test system is THLE-3. The experiment in a line: Cell proliferation assay (MTS or SRB), THLE-3. Type of data set: cell-based. Particulars: Homo sapiens, THLE3, 72 h; THLE-3, Liver (Normal), SV40 large T immortalized, 3 days; read-out: IC50 (cell growth inhibition). As for the experimental part: as §1, §4, §5
For a further data set, the system named is BKV(Dunlop). Particulars: BKV-infected RPTECs, Bernhoff et al., 2008, cited from earlier work.
The next data set relates to RPTECs. The experiment in a line: Inspection of RPTECs by phase contrast microscopy. Type of data set: cell-based, human. Conditions: 3 day exposure to CMX001 0.31 μM.
The next data set has as its system BKV. The experiment in a line: Stability of CMX001 stock solution, tested by antiviral effect on extracellular BKV load. Type of data set: cell-based. Particulars: diluted to 0.31 uM. On the procedure:
FIG. 7 illustrates the stability of CMX001. For FIG. 7, BKV-infected RPTECs were treated with freshly made CMX001 or CMX001 from a stock solution at 1 mg/ml stored for one week at 4° C. or −20° C. Supernatants were harvested 72 h p.i. and extracellular BKV load measured by qPCR. Data are presented as BKV load in percent of untreated cells set at 100%.
To examine the stability of CMX001 stock solution 1 mg/ml was put in 4 or −20° C. for one week then diluted to 0.31 uM and tested for its antiviral effect by measuring the extracellular BKV load in BKV-infected RPTEC 3 d p.i.

The subject of data set [1] is COS-7 cells. The experiment in a line: Metabolic activity of uninfected COS-7 cells (WST-1 assay). Type of data set: cell-based. As for the experimental part: Metabolic activity was examined as WST-1 cleavage. Medium with indicated CMX001 concentrations was added to COS-7 cells and absorbance measured 72 h post seeding. Absorbance for untreated cells was set as 100%. The metabolic activity was monitored by the colorimetric WST-1 assay (Roche) of the mitochondrial dehydrogenases in viable cells. COS-7 cells were seeded in 96 well plates and CMX001 was added at indicated concentrations. The WST-1 cleavage product was measured at 450 nm (sample) and at 650 nm (background). WST-1 plus medium alone served as blank.

Data set [2] has as its system COS-7 cells. The experiment in a line: DNA replication of uninfected COS-7 cells (BrdU assay). Type of data set: cell-based. Conditions: Chlorocebus aethiops. On the procedure:
FIG. 14 illustrates the effect of increasing concentrations of CMX001 on replication of COS-7 cells. DNA replication was determined by BrdU incorporation. Medium with indicated CMX001 concentrations was added to COS-7 cells and absorbance measured 72 h post seeding. Absorbance for untreated cells was set as 100%. DNA synthesis was quantified by the colorimetric measurement of BrdU incorporation into DNA in proliferating cells using the ‘Cell proliferation ELISA, BrdU’ kit (Roche). COS-7 cells were seeded in 96 well plates and CMX001 was added at indicated concentrations. Absorbance at 450 nm (sample) and at 650 nm (background) was determined 2 h after addition of the substrate.
(Uptake of a labelled nucleoside into DNA is a usual measure of proliferation.)

As a reminder, the IC50 is the concentration needed to halve the response being measured. For `Nc1ccn(C[C@@H](CO)OCP(=O)(O)O)c(=O)n1` [cidofovir], the IC50 in the data set on Caki-1, in the data set with Caki-2, in the data set on MDA-231, in the data set with A549, with SK-MEL-2 and in the data set on Het-1A was over 100 µM throughout. In addition, the half-maximal inhibitory concentration (IC50) with THLE-3 is over 100 µM. Besides, the “concentration of CDV inhibiting BKV (IC90)” value in the data set with BKV(Dunlop) was 40 µg/mL. In addition, in the data set with BKV(Dunlop) (read-out: concentration of CDV inhibiting BKV (IC90)), the IC90 was 127 µM.
For the compound `CCCCCCCCCCCCCCCCOCCCOP(=O)(O)CO[C@H](CO)Cn1ccc(N)nc1=O` [CMX001], in the data set with RPTECs, the “signs of impaired viability” value is reported as “did not reveal any signs of impaired viability”. Besides, the “activity compared to the freshly prepared drug” value is “less than 60%” with BKV (stock 1 mg/ml stored one week at 4° C.) and “approximately 90%” in the data set on BKV (stock 1 mg/ml stored one week at −20° C.). The “loss of metabolic activity” value in the data set with COS-7 cells [1] (CMX001 0.6 μM, COS-7) stood at 17%. The half-inhibitory concentration (IC50) with COS-7 cells [1] (Chlorocebus aethiops, uninfected COS-7 cells) is about 5 µM; in the data set with COS-7 cells [2], about 0.6 µM; in the data set with Caki-1, 68.6 µM; in the data set with Caki-2 it was 60 µM; in the data set with MDA-231, 11.2 µM; in the data set on A549, over 100 µM. Moreover, the 50% inhibitory concentration (IC50) with SK-MEL-2 amounted to 70.5 µM; in the data set on Het-1A, 20.5 µM; with THLE-3 it was 7 µM.
